Molecules are shown by their SMILES. The source made the active and inactive calls. The calls are words filed in the database; no cut-off is given here.

Experimental findings from ChEMBL document CHEMBL3044899, “Effect of chloro and fluoro groups on the antimicrobial activity of 2,5-disubstituted 4-thiazolidinones: a comparative study” (2012) are described below.

For test [1], the system named is Staphylococcus aureus. Briefly: Antibacterial activity against Staphylococcus aureus MTCC 96 at 100 ug/ml by cup-plate method. The format is functional. The following applies: read-out: DIZ.
Test [2] concerns Staphylococcus aureus. Briefly: Antibacterial activity against Staphylococcus aureus MTCC 96 at 300 ug/ml by cup-plate method. In kind it is functional. The following applies: read-out: DIZ.
The test system of test [3] is Pseudomonas aeruginosa. Briefly: Antibacterial activity against Pseudomonas aeruginosa MTCC 2453 at 300 ug/ml by cup-plate method. Conditions: read-out: DIZ. The format is functional.
Test [4] has as its system Bacillus subtilis. The test is described as follows: Antibacterial activity against Bacillus subtilis MTCC 121 at 200 ug/ml by cup plate method. The format is functional. Conditions: read-out: DIZ.
Test [5] deals with Escherichia coli. Briefly: Antibacterial activity against Escherichia coli MTCC 739 at 300 ug/ml by cup-plate method. The format is functional. Conditions: read-out: DIZ.
Test [6] relates to Bacillus subtilis. The test is described as follows: Antibacterial activity against Bacillus subtilis MTCC 121 at 300 ug/ml by cup plate method. In kind it is functional. Conditions: read-out: DIZ.
For test [7], the system named is Pseudomonas aeruginosa. The test is described as follows: Antibacterial activity against Pseudomonas aeruginosa MTCC 2453 at 50 ug/ml by cup-plate method. In kind it is functional. The following applies: read-out: DIZ.
In a further test the test system is Candida albicans. The test is described as follows: Antifungal activity against Candida albicans MTCC 227 at 50 to 300 ug/ml by cup-plate method. The format is functional, organism-based.
Test [8] concerns Bacillus subtilis. Briefly: Antibacterial activity against Bacillus subtilis MTCC 121 at 50 ug/ml by cup plate method. The format is functional. The following applies: read-out: DIZ.
Test [9] deals with Escherichia coli. The test is described as follows: Antibacterial activity against Escherichia coli MTCC 739 at 200 ug/ml by cup-plate method. In kind it is functional. Conditions: read-out: DIZ.
For test [10], the system named is Staphylococcus aureus. Briefly: Antibacterial activity against Staphylococcus aureus MTCC 96 by cup-plate method. In kind it is functional, organism-based.
For test [11], the system named is Escherichia coli. The test is described as follows: Antibacterial activity against Escherichia coli MTCC 739 by cup-plate method. The format is functional, organism-based.
Test [12] concerns Bacillus subtilis. Briefly: Antibacterial activity against Bacillus subtilis MTCC 121 at 100 ug/ml by cup plate method. The format is functional. The following applies: read-out: DIZ.
Test [13] concerns Staphylococcus aureus. Briefly: Antibacterial activity against Staphylococcus aureus MTCC 96 at 50 ug/ml by cup-plate method. In kind it is functional. The following applies: read-out: DIZ.
Test [14] relates to Pseudomonas aeruginosa. Briefly: Antibacterial activity against Pseudomonas aeruginosa MTCC 2453 at 200 ug/ml by cup-plate method. The format is functional. Conditions: read-out: DIZ.
The test system of test [15] is Staphylococcus aureus. Briefly: Antibacterial activity against Staphylococcus aureus MTCC 96 at 200 ug/ml by cup-plate method. The format is functional. The following applies: read-out: DIZ.
Test [16] has as its system Pseudomonas aeruginosa. Briefly: Antibacterial activity against Pseudomonas aeruginosa MTCC 2453 at 100 ug/ml by cup-plate method. In kind it is functional. The following applies: read-out: DIZ.
For test [17], the system named is Bacillus subtilis. Briefly: Antibacterial activity against Bacillus subtilis MTCC 121 by cup plate method. In kind it is functional, organism-based.
The test system of test [18] is Pseudomonas aeruginosa. Briefly: Antibacterial activity against Pseudomonas aeruginosa MTCC 2453 by cup-plate method. The format is functional, organism-based.
The subject of test [19] is Escherichia coli. The test is described as follows: Antibacterial activity against Escherichia coli MTCC 739 at 100 ug/ml by cup-plate method. In kind it is functional. The following applies: read-out: DIZ.
Test [20] relates to Escherichia coli. The test is described as follows: Antibacterial activity against Escherichia coli MTCC 739 at 50 ug/ml by cup-plate method. In kind it is functional. Conditions: read-out: DIZ.

Take `O=C1N/C(=N\c2ccc(F)c(Cl)c2)S/C1=C\c1ccccc1`: the zone of inhibition at 100 µg/mL turned out to be 10 mm with Staphylococcus aureus [1], 6 mm in the test with Bacillus subtilis [12], 10 mm in the test on Pseudomonas aeruginosa [16] and 8 mm with Escherichia coli [19]. Further, the zone of inhibition at 300 µg/mL with Staphylococcus aureus [2] was 10 mm; with Pseudomonas aeruginosa [3], 12 mm; in the test with Escherichia coli [5], 12 mm; in the test on Bacillus subtilis [6], 12 mm. Also, the zone of inhibition at 200 µg/mL amounted to 10 mm in the test with Bacillus subtilis [4], 11 mm with Escherichia coli [9], 10 mm with Pseudomonas aeruginosa [14] and 10 mm in the test with Staphylococcus aureus [15]. The zone of inhibition at 50 µg/mL in the test on Pseudomonas aeruginosa [7] was found to be 8 mm; in the test on Bacillus subtilis [8] it was 6 mm; in the test on Staphylococcus aureus [13], 6 mm; with Escherichia coli [20] it was 7 mm. The result in the test on Candida albicans was inactive. The Activity result in the test with Staphylococcus aureus [10], in the test on Escherichia coli [11], in the test with Bacillus subtilis [17] and with Pseudomonas aeruginosa [18] was “Dose-dependent effect” throughout.
As to `O=C1N/C(=N\c2ccc(Cl)cc2)S/C1=C\c1ccccc1[N+](=O)[O-]`, the zone of inhibition at 100 µg/mL in the test on Staphylococcus aureus [1] came out at 9 mm; in the test on Bacillus subtilis [12] it was 9 mm; in the test on Pseudomonas aeruginosa [16], 8 mm; in the test on Escherichia coli [19], 8 mm. In addition, the zone of inhibition at 300 µg/mL in the test with Staphylococcus aureus [2] was determined as 10 mm; in the test on Pseudomonas aeruginosa [3], 9 mm; with Escherichia coli [5], 9 mm; in the test with Bacillus subtilis [6], 11 mm. For the same compound, the zone of inhibition at 200 µg/mL was determined as 10 mm with Bacillus subtilis [4], 9 mm in the test on Escherichia coli [9], 8 mm with Pseudomonas aeruginosa [14] and 10 mm with Staphylococcus aureus [15]. The zone of inhibition at 50 µg/mL with Pseudomonas aeruginosa [7] stood at 7 mm; with Bacillus subtilis [8] it was 8 mm; with Staphylococcus aureus [13], 8 mm; with Escherichia coli [20], 6 mm. In addition, the outcome with Candida albicans was inactive. In addition, the Activity entry in the test with Staphylococcus aureus [10], with Escherichia coli [11], with Bacillus subtilis [17] and with Pseudomonas aeruginosa [18] was “Dose-dependent effect” each time.
Turning to `O=C1N/C(=N\c2ccc(F)c(Cl)c2)S/C1=C\c1ccc(O)cc1`, the zone of inhibition at 100 µg/mL stood at 10 mm in the test on Staphylococcus aureus [1], 10 mm with Bacillus subtilis [12], 9 mm in the test on Pseudomonas aeruginosa [16] and 9 mm in the test with Escherichia coli [19]. For the same compound, the zone of inhibition at 300 µg/mL with Staphylococcus aureus [2] was 11 mm; in the test on Pseudomonas aeruginosa [3] it was 10 mm; with Escherichia coli [5], 10 mm; in the test on Bacillus subtilis [6], 11 mm. Further, the zone of inhibition at 200 µg/mL in the test on Bacillus subtilis [4], with Escherichia coli [9], in the test on Pseudomonas aeruginosa [14] and in the test on Staphylococcus aureus [15] was 10 mm throughout. Also, the zone of inhibition at 50 µg/mL in the test with Pseudomonas aeruginosa [7] was 8 mm; with Bacillus subtilis [8], 9 mm; in the test with Staphylococcus aureus [13], 8 mm; in the test on Escherichia coli [20] it was 8 mm. Moreover, the result in the test on Candida albicans was inactive. For the same compound, the Activity entry in the test with Staphylococcus aureus [10], with Escherichia coli [11], in the test on Bacillus subtilis [17] and in the test on Pseudomonas aeruginosa [18] was “Dose-dependent effect” throughout.
Take `O=C1N/C(=N\c2ccc(F)c(Cl)c2)S/C1=C\c1cccc([N+](=O)[O-])c1`: the zone of inhibition at 100 µg/mL was determined as 12 mm in the test with Staphylococcus aureus [1], 12 mm in the test with Bacillus subtilis [12], 10 mm with Pseudomonas aeruginosa [16] and 8 mm in the test with Escherichia coli [19]. Moreover, the zone of inhibition at 300 µg/mL in the test with Staphylococcus aureus [2] came to 16 mm; in the test on Pseudomonas aeruginosa [3], 12 mm; in the test with Escherichia coli [5], 10 mm; with Bacillus subtilis [6] it was 15 mm. In addition, the zone of inhibition at 200 µg/mL in the test on Bacillus subtilis [4] worked out at 14 mm; with Escherichia coli [9] it was 9 mm; in the test with Pseudomonas aeruginosa [14] it was 11 mm; in the test with Staphylococcus aureus [15], 14 mm. For the same compound, the zone of inhibition at 50 µg/mL in the test with Pseudomonas aeruginosa [7] stood at 8 mm; in the test with Bacillus subtilis [8], 12 mm; in the test with Staphylococcus aureus [13], 11 mm; with Escherichia coli [20] it was 7 mm. The result in the test on Candida albicans was inactive. For the same compound, the Activity entry in the test on Staphylococcus aureus [10], in the test with Escherichia coli [11], in the test on Bacillus subtilis [17] and in the test on Pseudomonas aeruginosa [18] was “Dose-dependent effect” each time.
For the compound `COc1cc(/C=C2\S/C(=N/c3ccc(Cl)cc3)NC2=O)ccc1O`, the zone of inhibition at 100 µg/mL stood at 6 mm in the test with Staphylococcus aureus [1], 7 mm with Bacillus subtilis [12], 7 mm with Pseudomonas aeruginosa [16] and 8 mm in the test with Escherichia coli [19]. The zone of inhibition at 300 µg/mL worked out at 8 mm in the test with Staphylococcus aureus [2], 9 mm in the test on Pseudomonas aeruginosa [3], 9 mm in the test with Escherichia coli [5] and 7 mm with Bacillus subtilis [6]. For the same compound, the zone of inhibition at 200 µg/mL with Bacillus subtilis [4] worked out at 7 mm; in the test on Escherichia coli [9], 9 mm; in the test on Pseudomonas aeruginosa [14], 8 mm; in the test with Staphylococcus aureus [15] it was 7 mm. Moreover, the zone of inhibition at 50 µg/mL stood at 7 mm in the test on Pseudomonas aeruginosa [7], 6 mm in the test with Bacillus subtilis [8], 6 mm in the test with Staphylococcus aureus [13] and 7 mm with Escherichia coli [20]. Also, the outcome in the test on Candida albicans was inactive. Besides, the Activity result with Staphylococcus aureus [10], in the test with Escherichia coli [11], in the test with Bacillus subtilis [17] and in the test with Pseudomonas aeruginosa [18] was “Dose-dependent effect” in each case.
Take `O=C1N/C(=N\c2cccc(Cl)c2)S/C1=C\c1cccc([N+](=O)[O-])c1`: the zone of inhibition at 100 µg/mL in the test on Staphylococcus aureus [1] stood at 9 mm; in the test on Bacillus subtilis [12] it was 9 mm; in the test on Pseudomonas aeruginosa [16], 8 mm; with Escherichia coli [19] it was 7 mm. Also, the zone of inhibition at 300 µg/mL in the test with Staphylococcus aureus [2] turned out to be 10 mm; with Pseudomonas aeruginosa [3], 9 mm; with Escherichia coli [5], 8 mm; with Bacillus subtilis [6] it was 10 mm. For the same compound, the zone of inhibition at 200 µg/mL in the test on Bacillus subtilis [4] came out at 9 mm; in the test on Escherichia coli [9], 8 mm; with Pseudomonas aeruginosa [14] it was 9 mm; with Staphylococcus aureus [15], 9 mm. The zone of inhibition at 50 µg/mL in the test with Pseudomonas aeruginosa [7] stood at 8 mm; in the test on Bacillus subtilis [8], 8 mm; with Staphylococcus aureus [13], 8 mm; in the test with Escherichia coli [20], 7 mm. Besides, the result in the test with Candida albicans was inactive. Further, the Activity result with Staphylococcus aureus [10], in the test on Escherichia coli [11], in the test on Bacillus subtilis [17] and in the test with Pseudomonas aeruginosa [18] was “Dose-dependent effect” in each case.
